Experimental data from ChEMBL document CHEMBL1147536, “Synthesis and biochemical properties of E-ring modified luotonin A derivatives” (2004).

Experiments:
Assay type in all cases: functional
Saccharomyces cerevisiae [1] = test: Percent inhibitory activity of 50 uM of compound against growth of Saccharomyces cerevisiae transfected with human topoisomerase-1 in medium containing galactose
Saccharomyces cerevisiae [2] = test: Percent inhibitory activity of 100 uM of compound against growth of Saccharomyces cerevisiae transfected with human topoisomerase-1 in medium containing galactose
Saccharomyces cerevisiae [3] = test: Percent inhibitory activity of 50 uM of compound against growth of Saccharomyces cerevisiae transfected with human topoisomerase-1 in medium containing raffinose
Saccharomyces cerevisiae [4] = test: Percent inhibitory activity of 100 uM of compound against growth of Saccharomyces cerevisiae transfected with human topoisomerase-1 in medium containing raffinose
Saccharomyces cerevisiae [5] = test: Percent inhibitory activity of 25 uM of compound against growth of Saccharomyces cerevisiae transfected with human topoisomerase-1 in medium containing raffinose
Saccharomyces cerevisiae [6] = test: Percent inhibitory activity of 25 uM of compound against growth of Saccharomyces cerevisiae transfected with human topoisomerase-1 in medium containing galactose
Saccharomyces cerevisiae [7] = test: Percent inhibitory activity of 5 uM of compound against growth of Saccharomyces cerevisiae transfected with human topoisomerase-1 in medium containing raffinose
Saccharomyces cerevisiae [8] = test: Percent inhibitory activity of 5 uM of compound against growth of Saccharomyces cerevisiae transfected with human topoisomerase-1 in medium containing galactose
Saccharomyces cerevisiae [9] = test: Percent inhibitory activity of 10 uM of compound against growth of Saccharomyces cerevisiae transfected with human topoisomerase-1 in medium containing galactose
Saccharomyces cerevisiae [10] = test: Percent inhibitory activity of 1 uM of compound against growth of Saccharomyces cerevisiae transfected with human topoisomerase-1 in medium containing galactose
Saccharomyces cerevisiae [11] = test: Percent inhibitory activity of 10 uM of compound against growth of Saccharomyces cerevisiae transfected with human topoisomerase-1 in medium containing raffinose
Saccharomyces cerevisiae [12] = test: Percent inhibitory activity of 1 uM of compound against growth of Saccharomyces cerevisiae transfected with human topoisomerase-1 in medium containing raffinose
Saccharomyces cerevisiae [13] = test: Percent inhibitory activity of 0.5 uM of compound against growth of Saccharomyces cerevisiae transfected with human topoisomerase-1 in medium containing galactose
Saccharomyces cerevisiae [14] = test: Percent inhibitory activity of 0.5 uM of compound against growth of Saccharomyces cerevisiae transfected with human topoisomerase-1 in medium containing raffinose
Saccharomyces cerevisiae [15] = test: Percent inhibitory activity of 0.75 uM of compound against growth of Saccharomyces cerevisiae transfected with human topoisomerase-1 in medium containing galactose
Saccharomyces cerevisiae [16] = test: Percent inhibitory activity of 15 uM of compound against growth of Saccharomyces cerevisiae transfected with human topoisomerase-1 in medium containing raffinose
Saccharomyces cerevisiae [17] = test: Percent inhibitory activity of 1.5 uM of compound against growth of Saccharomyces cerevisiae transfected with human topoisomerase-1 in medium containing galactose
Saccharomyces cerevisiae [18] = test: Percent inhibitory activity of 1.5 uM of compound against growth of Saccharomyces cerevisiae transfected with human topoisomerase-1 in medium containing raffinose
Saccharomyces cerevisiae [19] = test: Percent inhibitory activity of 15 uM of compound against growth of Saccharomyces cerevisiae transfected with human topoisomerase-1 in medium containing galactose
Saccharomyces cerevisiae [20] = test: Percent inhibitory activity of 0.75 uM of compound against growth of Saccharomyces cerevisiae transfected with human topoisomerase-1 in medium containing raffinose

`O=c1c2cccc(O)c2nc2n1Cc1cc3ccccc3nc1-2` was tested, and the Inhibition (Saccharomyces cerevisiae [1]) was 9%, the Inhibition (Saccharomyces cerevisiae [2]) was 13% and the Inhibition (Saccharomyces cerevisiae [3]) was 0%. For the same compound, the Inhibition (Saccharomyces cerevisiae [4]) was 7%.

`COc1cccc2c(=O)n3c(nc12)-c1nc2ccccc2cc1C3` [16-METHOXYLUOTONIN A] gave an Inhibition (Saccharomyces cerevisiae [5]) of 47%, an Inhibition (Saccharomyces cerevisiae [6]) of 2% and an Inhibition (Saccharomyces cerevisiae [7]) of 35%. The Inhibition (Saccharomyces cerevisiae [8]) was 0%.

Compound `O=c1c2c(nc3n1Cc1cc4ccccc4nc1-3)CCCC2` has an Inhibition (Saccharomyces cerevisiae [1]) of 46%, an Inhibition (Saccharomyces cerevisiae [2]) of 51% and an Inhibition (Saccharomyces cerevisiae [3]) of 3%. The Inhibition (Saccharomyces cerevisiae [4]) was 18%.

With `Cc1ccc2nc3n(c(=O)c2c1)Cc1cc2ccccc2nc1-3` the Inhibition (Saccharomyces cerevisiae [9]) was 49%, the Inhibition (Saccharomyces cerevisiae [10]) was 14% and the Inhibition (Saccharomyces cerevisiae [11]) was 39%. The Inhibition (Saccharomyces cerevisiae [12]) was 8%.

In the case of `O=c1c2ccc(F)cc2nc2n1Cc1cc3ccccc3nc1-2`, the Inhibition (Saccharomyces cerevisiae [1]) is reported as 73%, the Inhibition (Saccharomyces cerevisiae [5]) is reported as 0% and the Inhibition (Saccharomyces cerevisiae [3]) is reported as 14%. It also gave an Inhibition (Saccharomyces cerevisiae [6]) of 40%.

`O=c1c2ccccc2nc2n1Cc1cc3ccccc3nc1-2` [LUOTONIN A] showed an Inhibition (Saccharomyces cerevisiae [9]) of 56%, an Inhibition (Saccharomyces cerevisiae [13]) of 23% and an Inhibition (Saccharomyces cerevisiae [10]) of 36%. It also gave an Inhibition (Saccharomyces cerevisiae [11]) of 35%, an Inhibition (Saccharomyces cerevisiae [12]) of 0% and an Inhibition (Saccharomyces cerevisiae [14]) of 0%.

`CC[C@@]1(O)C(=O)OCc2c1cc1n(c2=O)Cc2cc3ccccc3nc2-1` [CAMPTOTHECIN] was tested, and the Inhibition (Saccharomyces cerevisiae [15]) was 40%, the Inhibition (Saccharomyces cerevisiae [16]) was 18% and the Inhibition (Saccharomyces cerevisiae [17]) was 68%. The Inhibition (Saccharomyces cerevisiae [18]) was 19%, the Inhibition (Saccharomyces cerevisiae [19]) was 78% and the Inhibition (Saccharomyces cerevisiae [20]) was 10%.

For `O=c1c2cc(F)c(F)cc2nc2n1Cc1cc3ccccc3nc1-2`, the Inhibition (Saccharomyces cerevisiae [9]) was 0%, the Inhibition (Saccharomyces cerevisiae [10]) was 0% and the Inhibition (Saccharomyces cerevisiae [11]) was 53%. The Inhibition (Saccharomyces cerevisiae [12]) was 26%.
